Data on eight molecules can be found in patent US20100204128A1, “NOVEL PEPTIDES” (SANARE INVESTMENT AS, priority 2007, published 2010).

Holding throughout (assay type): cell-based
Holding throughout (settings): for fluorescent readings: 24 hours, duplicate wells

The test system of one experiment is T47D cells. The experiment is described as follows: AlmarBlue fluorescence cell growth test, T47D cells. The protocol: (§1) Re-feed media were prepared to yield the following final six concentrations of each of the 12 peptides: 5×10^−3, 5×10^−4, 5×10^−5, 5×10^−6, 5×10^−7, and 5×10^−8M. […] With that, the 5×10^−3M mixture contains about 0.42×10^−3M of each peptide. […] With that, the 5×10^−3M mixture contains about 0.42×10^−3M of each of said 8 peptides.
(§2) MCF-7 and T47D cells were seeded into 96-well plates at a density of 10,000 cells per well in 90 μL of appropriate culture medium. TMX2-28 cells were seeded into 96-well plates at a density of 5,000 cells per well in 90 μL of appropriate culture medium. Plates were placed in a 37° C., 5% CO2 incubator and cells were allowed to attach to the bottom of the well for 24 hours after which 10 μL of the appropriate refeed medium was added. Each concentration was tested in duplicate in each cell line. […] Cells were then incubated for 24 hours. Subsequently 10 μL of AlmarBlue (Biosource) was added to each well. After three hours, the fluorescence was detected using a Packard Instrument Plate Reader with 535/20 excitation and 590/20 emission filters.

The next experiment concerns TMX2-28 cells. The experiment is described as follows: AlmarBlue fluorescence cell growth test, TMX2-28 cells. Here is the method: With that, the 5×10^−3M mixture contains about 0.42×10^−3M of each peptide. Furthermore, mixtures containing equal volumes of peptides SEQ ID NO:2-SEQ ID NO:7, SEQ ID NO:10 and SEQ ID NO:11 were also prepared (equal volumes of said re-feed media) to yield the following final six concentrations: […] With that, the 5×10^−3M mixture contains about […].
as §2

For another experiment, the system named is MCF-7 cells. The experiment is described as follows: AlmarBlue fluorescence cell growth test, MCF-7 cells. Here is the method: as §1, §2
Where [1] appears, read: 5 × 10^−4 M (mixtures: total concentration), decrease vs DC5 = reduced cell growth.
Where [2] appears, read: 5 × 10^−5 M (mixtures: total concentration).
Setting [3] is: 5 × 10^−6 M (mixtures: total concentration).
The mark [4] stands for this setting: 5 × 10^−7 M (mixtures: total concentration).
The mark [5] stands for this setting: 5 × 10^−8 M (mixtures: total concentration).
Setting [6] is: 5 × 10^−9 M (mixtures: total concentration).

Where “and” joins values, the source holds several entries; their conditions need not be identical. Equal values may be shown once.

In the case of `c1ccc2c(c1)cc1ccc3cccc4ccc2c1c34` [BaP, Benzo[a]pyrene, reference compound], the “effect on proliferation (in words)” value in the experiment with T47D cells (24 hours incubation) and in the experiment with TMX2-28 cells (24 hours incubation) was “insufficient to decrease the proliferation” in each case.

For the molecule `CC/C(=C(\c1ccccc1)c1ccc(OCCN(C)C)cc1)c1ccccc1` [Tamoxifen, reference compound], the “effect on proliferation (in words)” value in the experiment on MCF-7 cells (24 hours incubation) is “insufficient to decrease the proliferation”.

“SEQIDNO1: synthesised peptide identified in the 10 kDa blood fraction after acupuncture; sequence not printed in the text (ASPVAPLDPLLKYGRGQPVSSASGTTTDLGQ; Derived from human blood sample)”: the fluorescent readings with T47D cells (setting [1]) was 65814 and 66151; with T47D cells (setting [2]), 64794 and 65757; in the experiment on T47D cells (setting [3]), 63241 and 63091; with T47D cells (setting [4]), 63036 and 62709; in the experiment with T47D cells (setting [5]) it was 62633 and 62689; in the experiment on T47D cells (setting [6]), 55767 and 59593. The fluorescent readings in the experiment on TMX2-28 cells (setting [1]) was 74129 and 72743; in the experiment on TMX2-28 cells (setting [2]), 73649 and 71774; in the experiment with TMX2-28 cells (setting [3]), 72975 and 71640; with TMX2-28 cells (setting [4]) it was 74503 and 75697; in the experiment with TMX2-28 cells (setting [5]), 75445 and 77164; in the experiment on TMX2-28 cells (setting [6]), 71409 and 71588. For the same molecule, the fluorescent readings is 69131 and 67176 with MCF-7 cells (setting [1]); 65474 and 66009 with MCF-7 cells (setting [2]); 65860 and 64140 with MCF-7 cells (setting [3]); 62613 and 62686 with MCF-7 cells (setting [4]); 63693 and 62463 with MCF-7 cells (setting [5]); 62279 and 60719 in the experiment on MCF-7 cells (setting [6]).

“SEQIDNO2: synthesised peptide identified in the 10 kDa blood fraction after acupuncture; sequence not printed in the text (KVGAHAGEYGAEALER; Derived from human blood sample)”: the fluorescent readings is 66780 and 68474 in the experiment on T47D cells (setting [1]); 67257 and 66607 in the experiment on T47D cells (setting [2]); 63525 and 67453 with T47D cells (setting [3]); 64064 and 66021 with T47D cells (setting [4]); 62463 and 63876 with T47D cells (setting [5]); 57744 and 60399 in the experiment with T47D cells (setting [6]). Also, the fluorescent readings in the experiment on TMX2-28 cells (setting [1]) was 70121 and 70743; in the experiment on TMX2-28 cells (setting [2]), 70162 and 68517; with TMX2-28 cells (setting [3]), 69083 and 71861; with TMX2-28 cells (setting [4]), 72557 and 73134; with TMX2-28 cells (setting [5]), 72061 and 73603; in the experiment with TMX2-28 cells (setting [6]) it was 68910 and 72372. Moreover, the fluorescent readings is 68630 and 65876 in the experiment with MCF-7 cells (setting [1]); 66492 and 66554 with MCF-7 cells (setting [2]); 65617 and 65531 in the experiment with MCF-7 cells (setting [3]); 63699 and 63627 in the experiment with MCF-7 cells (setting [4]); 63539 and 63477 in the experiment with MCF-7 cells (setting [5]); 63298 and 62132 in the experiment on MCF-7 cells (setting [6]).

In the case of “SEQIDNO3: synthesised peptide identified in the 10 kDa blood fraction after acupuncture; sequence not printed in the text (KTFTVTEGSMAGGAWGRL; Derived from human blood sample)”, the fluorescent readings is 61359 and 61718 in the experiment with T47D cells (setting [1]); 66736 and 61724 with T47D cells (setting [2]); 65079 and 58554 with T47D cells (setting [3]); 64329 and 59141 in the experiment with T47D cells (setting [4]); 61766 and 61031 in the experiment on T47D cells (setting [5]); 59482 and 59451 in the experiment on T47D cells (setting [6]). Also, the fluorescent readings is 68963 and 67344 in the experiment with TMX2-28 cells (setting [1]); 69237 and 66454 in the experiment with TMX2-28 cells (setting [2]); 71007 and 67496 with TMX2-28 cells (setting [3]); 72558 and 69648 in the experiment with TMX2-28 cells (setting [4]); 72686 and 69197 with TMX2-28 cells (setting [5]); 69066 and 70821 in the experiment on TMX2-28 cells (setting [6]). The fluorescent readings in the experiment on MCF-7 cells (setting [1]) was 63831 and 65178; in the experiment with MCF-7 cells (setting [2]), 64053 and 64928; in the experiment on MCF-7 cells (setting [3]), 64217 and 64899; in the experiment with MCF-7 cells (setting [4]), 62452 and 66233; with MCF-7 cells (setting [5]), 61563 and 63132; in the experiment with MCF-7 cells (setting [6]), 62603 and 61621.

In the case of “SEQIDNO4: synthesised peptide identified in the 10 kDa blood fraction after acupuncture; sequence not printed in the text (KFLQAKFYQLSLERP; Derived from human blood sample)”, the fluorescent readings is 65000 and 63427 in the experiment with T47D cells (setting [1]); 66449 and 66303 in the experiment on T47D cells (setting [2]); 66808 and 65677 with T47D cells (setting [3]); 65859 and 65314 in the experiment with T47D cells (setting [4]); 66040 and 64619 in the experiment with T47D cells (setting [5]); 57800 and 59394 with T47D cells (setting [6]). In addition, the fluorescent readings is 68299 and 67310 with TMX2-28 cells (setting [1]); 67939 and 68552 with TMX2-28 cells (setting [2]); 69917 and 70618 with TMX2-28 cells (setting [3]); 70744 and 72469 in the experiment with TMX2-28 cells (setting [4]); 71761 and 72585 in the experiment with TMX2-28 cells (setting [5]); 70255 and 70823 with TMX2-28 cells (setting [6]). The fluorescent readings was 64475 and 66716 in the experiment on MCF-7 cells (setting [1]); 63637 and 66597 in the experiment with MCF-7 cells (setting [2]); 65699 and 66767 in the experiment with MCF-7 cells (setting [3]); 64278 and 64885 in the experiment with MCF-7 cells (setting [4]); 64878 and 64702 in the experiment with MCF-7 cells (setting [5]); 61356 and 61062 in the experiment on MCF-7 cells (setting [6]).

For the molecule “SEQIDNO5: synthesised peptide identified in the 10 kDa blood fraction after acupuncture; sequence not printed in the text (REVQGAFLRFMACLLKGYRV; Derived from human blood sample)”, the fluorescent readings in the experiment with T47D cells (setting [1]) was 54287 and 54068; with T47D cells (setting [2]), 61500 and 65566; in the experiment with T47D cells (setting [3]), 63089 and 64735; with T47D cells (setting [4]), 64043 and 64408; in the experiment on T47D cells (setting [5]), 62339 and 63402; in the experiment on T47D cells (setting [6]) it was 61350 and 61820. The fluorescent readings in the experiment with TMX2-28 cells (setting [1]) is 27056 and 29836; with TMX2-28 cells (setting [2]), 62564 and 67140; in the experiment on TMX2-28 cells (setting [3]) it was 67405 and 69619; with TMX2-28 cells (setting [4]), 69438 and 69605; in the experiment on TMX2-28 cells (setting [5]), 70141 and 70591; in the experiment with TMX2-28 cells (setting [6]) it was 69376 and 67302. For the same molecule, the fluorescent readings in the experiment on MCF-7 cells (setting [1]) was 56679 and 54497; with MCF-7 cells (setting [2]), 61089 and 62458; in the experiment with MCF-7 cells (setting [3]), 61618 and 65571; in the experiment on MCF-7 cells (setting [4]), 61677 and 66372; in the experiment on MCF-7 cells (setting [5]), 62738 and 64281; in the experiment on MCF-7 cells (setting [6]) it was 57537 and 60120.

Regarding “SEQIDNO6: synthesised peptide identified in the 10 kDa blood fraction after acupuncture; sequence not printed in the text (RKEGKGERE; Derived from human blood sample)”, the fluorescent readings in the experiment on T47D cells (setting [1]) is 60992 and 68394; with T47D cells (setting [2]), 57868 and 68983; in the experiment with T47D cells (setting [3]), 66902 and 68862; in the experiment with T47D cells (setting [4]) it was 65508 and 66620; with T47D cells (setting [5]), 65244 and 64730; in the experiment with T47D cells (setting [6]), 61392 and 63577. Further, the fluorescent readings with TMX2-28 cells (setting [1]) was 68949 and 68566; with TMX2-28 cells (setting [2]), 70355 and 69358; in the experiment on TMX2-28 cells (setting [3]), 70389 and 69887; in the experiment on TMX2-28 cells (setting [4]) it was 71096 and 70512; with TMX2-28 cells (setting [5]), 70707 and 71208; with TMX2-28 cells (setting [6]) it was 62308 and 64367. The fluorescent readings in the experiment with MCF-7 cells (setting [1]) was 69282 and 66723; in the experiment on MCF-7 cells (setting [2]), 69071 and 69114; in the experiment with MCF-7 cells (setting [3]) it was 67961 and 70454; in the experiment on MCF-7 cells (setting [4]) it was 66967 and 68329; in the experiment on MCF-7 cells (setting [5]), 65221 and 65987; in the experiment with MCF-7 cells (setting [6]), 60855 and 61454.
